Measured values: the supplement of paper PMC8967900

Experiments:
Assay in all cases: selective drug sensitivity score (sDSS, relative to normal bone marrow) (sDSS (score)); higher = more potent and effective on the cell line relative to normal bone marrow cells
Details in all cases: 72 h
[1] = system: MOLT-4
[2] = system: NALM-16
[3] = system: SUP-B15
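Further: ALL cell lines in 384-well plates, five doses spanning 10,000-fold, each plate scaled between vehicle and 100 µmol/L benzalkonium chloride controls, sDSS an adapted area-under-curve metric.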

Row | Structure (SMILES) | selective drug sensitivity score [1] | selective drug sensitivity score [2] | selective drug sensitivity score [3]
1 | COc1cc2c(N3CCN(C(=O)Nc4ccc(OC(C)C)cc4)CC3)ncnc2cc1OCCCN1CCCCC1 [Tandutinib] (top concentration 1000 nM) | 0 | 0.8 | 0.5
2 | Cn1nnc2c(C(N)=O)ncn2c1=O [Temozolomide] (top concentration 100000 nM) | 1.86 | -0.04 | -0.04
3 | CN1CCC(COc2cnc(-c3cccc(Cn4nc(-c5cccc(C#N)c5)ccc4=O)c3)nc2)CC1 [Tepotinib] (top concentration 1000 nM) | -0.08 | -0.08 | -0.08
4 | NC(=S)N/N=C/c1ncccc1N [Triapine] (top concentration 10000 nM) | 1.98 | 2.68 | 2.48
5 | NC(=O)c1cccc(-c2cccc(OC(=O)NC3CCCCC3)c2)c1 [URB597] (top concentration 1000 nM) | -0.46 | -0.46 | 0.94
6 | COc1cc2/c(=N/c3ccc(Br)cc3F)nc[nH]c2cc1OCC1CCN(C)CC1 [Vandetanib] (top concentration 1000 nM) | -0.22 | -0.22 | 1.08
7 | COc1cccc(-c2ccc(NC(=O)C3=C(C(=O)O)CCC3)c(F)c2)c1 [Vidofludimus] (top concentration 10000 nM) | 3.6 | 3.5 | 6
8 | CC[C@]12C=CCN3CC[C@@]4(c5cc([C@@]6(C(=O)OC)C[C@@H]7C[C@@H](C(C)(F)F)CN(Cc8c6[nH]c6ccccc86)C7)c(OC)cc5N(C)[C@H]4[C@@](O)(C(=O)OC)[C@@H]1OC(C)=O)[C@@H]32 [Vinflunine] (top concentration 1000 nM) | 3.48 | 4.08 | 3.48
